The structures appear in SMILES notation. Values after ≈ are worked out from the molar mass of the structure shown. Read-outs that look alike come from different tables or passages of the source.

Series [1] has as its system human monocytes/macrophages. The series can be described thus: MTS staining for macrophage viability (cytotoxicity). The class given is cell-based. The procedure:
Anti-HIV efficacy evaluation in human monocyte/macrophages. Following 6 to 14 days in culture, the monocyte/macrophages cultures were washed 3 times to remove any non-adherent cells, and serially diluted test compounds were added followed by the addition of a pre-titered amount of HIV. Cultures were washed a final time by media removal 24 h post infection, fresh compound added and the cultures continued for an additional six days. Assays were performed using a standardized microtiter plate format developed by the Infectious Disease Research Department of Southern Research Institute. […] At assay termination, virus replication was measured by collecting cell-free supernatant samples, which were analyzed for HIV p24 antigen content using a commercially available p24 ELISA assay (Coulter). Following removal of supernatant samples, compound cytotoxicity was measured by addition of MTS to the plates for determination of cell viability. […]
MTS staining for macrophage viability to measure cytotoxicity. At assay termination, the assay plates were stained with the soluble tetrazolium-based dye MTS (CellTiter Reagent, Promega) to determine cell viability and quantify compound cytotoxicity. MTS is metabolized by the mitochondrial enzymes of metabolically active cells to yield a soluble formazan product, allowing the rapid quantitative analysis of cell viability and compound cytotoxicity. […]

The test system of series [2] is Human PBMCs. The series can be described thus: MTS staining for PBMC viability (cytotoxicity). The class given is cell-based. The settings on record: for Cytotoxicity: at the concentrations evaluated. The procedure: PMBC assay. For the standard PBMC assay, PHA-P stimulated cells from at least two normal donors were pooled (mixed together), diluted in fresh medium to a final concentration of 1×10^6 cells/mL, and plated in the interior wells of a 96 well round bottom microplate at 50 μL/well (5×10^4 cells/well) in a standard format developed by the Infectious Disease Research department of Southern Research Institute. Pooling (mixing) of mononuclear cells from more than one donor is used to minimize the variability observed between individual donors, which results from quantitative and qualitative differences in HIV infection and overall response to the PHA and IL-2 of primary lymphocyte populations. Each plate contains virus/cell control wells (cells plus virus), experimental wells (drug plus cells plus virus) and compound control wells ([…], necessary for MTS monitoring of cytotoxicity). Since HIV-1 is not cytopathic to PBMCs, this allows the use of the same assay plate for both antiviral activity and cytotoxicity measurements. Test drug dilutions were prepared at a 2× concentration in microtiter tubes and 100 μL of each concentration was placed in appropriate wells using the standard format. 50 μL of a predetermined dilution of virus stock was placed in each test well (final MOI˜0.1). The PBMC cultures were maintained for seven days following infection at 37° C., 5% CO2. After this period, cell-free supernatant samples were collected for analysis of reverse transcriptase activity and/or HIV p24 content. Following removal of supernatant samples, compound cytotoxicity was measured by addition of MTS to the plates for determination of cell viability. Wells were also examined microscopically and any abnormalities were noted.
MTS staining for PBMC viability to measure cytotoxicity. At assay termination, assay plates were stained with the soluble tetrazolium-based dye MTS (CellTiter 96 Reagent, Promega) to determine cell viability and quantify compound toxicity. The mitochondrial enzymes of metabolically active cells metabolize MTS to yield a soluble formazan product. This allows the rapid quantitative analysis of cell viability and compound cytotoxicity. […] At termination of the assay, 20 μL of MTS reagent was added per well. The microtiter plates were then incubated 4 6 hrs at 37° C. The incubation intervals were chosen based on empirically determined times for optimal dye reduction. Adhesive plate sealers were used in place of the lids, the sealed plate was inverted several times to mix the soluble formazan product and the plate was read spectrophotometrically at 490/650 ηm with a Molecular Devices Vmax or SpectraMaxPlus plate reader.
Data analysis. Using an in-house computer program, IC50 (50%, inhibition of virus replication), IC90 (90%, inhibition of virus replication), IC95 (95%, inhibition of virus replication), TC50 (50% reduction in cell viability), TC90 (90% reduction in cell viability), TC95 (95% reduction in cell viability), and a therapeutic index (TI=TC50/IC50) were determined. AZT (nucleoside reverse transcriptase inhibitor) was used as a positive control antiviral compound.

As to `CC(=O)O[C@@]12C[C@@H](C)[C@@]3(O)[C@@H](C=C(CO)C[C@]4(O)C(=O)C(C)=C[C@@H]34)[C@@H]1C2(C)C` [SA-101A, 12-deoxyphorbol 13-acetate], the TC50 in series [1] was 17.3 µg/mL (≈ 44.3 µM); in series [2] (HIV-1Ba-L assay plate), above 1.00 µg/mL; in series [2] (HIV-1IIIB assay plate) it was above 1.00 µg/mL; in series [2] (SIVMac251 assay plate), above 1.00 µg/mL. Also, the Cytotoxicity entry in series [2] was “no cytotoxicity”.

Turning to `CC(=O)OC12CC(C)C3(O)C(C=C(COC(=O)CCC(=O)O)CC4(O)C(=O)C(C)=CC43)C1C2(C)C` (stereo not shown) [SA-101B, Prostratin Succinate], the TC50 in series [1] (40% Human AB serum) is 21.0 µg/mL; in series [2] (HIV-1Ba-L assay plate, 40% Human AB serum) it was above 1.00 µg/mL; in series [2] (HIV-1IIIB assay plate, 40% Human AB serum) it was above 1.00 µg/mL; in series [2] (SIVMac251 assay plate, 40% Human AB serum), above 1.00 µg/mL. The Cytotoxicity entry in series [2] (40% human AB serum) is recorded as “no cytotoxicity”.

(Values after US8022103B2, “Ester prodrugs of prostratin and related phorbol compounds” (Salvia Sciences, Inc., priority 2005, dated 2011).)
